Laboratory results published in the NIST ThermoML archive (doi:10.1021/je049788h).

Experiment: xn = mol fraction of the nth substance listed
Conditions: 101.3 kPa, Liquid; for viscosity: Capillary tube (Ostwald / Ubbelohde) method; for mass density: Vibrating tube method

COCCOCCOCCOCCOC [2,5,8,11,14-pentaoxapentadecane] + O
Conditions | mass density, 298.15 K [kg/m3] | mass density, 313.15 K [kg/m3] | mass density, 323.15 K [kg/m3] | mass density, 333.15 K [kg/m3] | mass density, 343.15 K [kg/m3] | viscosity, 298.15 K [mPa·s] | viscosity, 313.15 K [mPa·s] | viscosity, 323.15 K [mPa·s] | viscosity, 333.15 K [mPa·s] | viscosity, 343.15 K [mPa·s]
x1 = 0.0199 | 1013.95 | 1006.73 | 1001.25 | 995.13 | 988.58 | 3.11 | 2.11 | 1.71 | 1.41 | 1.18
x1 = 0.051 | 1020.21 | 1011.89 | 1005.7 | 999.35 | 991.92 | 4.04 | 2.64 | 2.12 | 1.69 | 1.41
x1 = 0.1066 | 1038.9 | 1025.7 | 1016.67 | 1007.47 | 998.09 | 6.17 | 3.62 | 2.7 | 2.08 | 1.67
x1 = 0.195 | 1033.66 | 1019.8 | 1010.4 | 1000.92 | 991.28 | 6.22 | 3.77 | 2.86 | 2.24 | 1.8
x1 = 0.3008 | 1026.07 | 1012.12 | 1002.75 | 993.27 | 983.67 | 5.29 | 3.39 | 2.63 | 2.12 | 1.73
x1 = 0.4088 | 1020.42 | 1006.46 | 997.07 | 987.6 | 978.07 | 4.59 | 3.08 | 2.42 | 1.97 | 1.65
x1 = 0.5116 | 1016.56 | 1002.6 | 993.21 | 983.77 | 974.27 | 4.14 | 2.82 | 2.26 | 1.86 | 1.56
x1 = 0.6252 | 1013.52 | 999.55 | 990.2 | 980.79 | 971.34 | 3.81 | 2.65 | 2.15 | 1.78 | 1.51
x1 = 0.7016 | 1011.64 | 997.66 | 988.33 | 978.95 | 969.56 | 3.65 | 2.57 | 2.1 | 1.75 | 1.5
x1 = 0.8037 | 1009.81 | 995.86 | 985.65 | 977.24 | 967.88 | 3.51 | 2.49 | 2.06 | 1.73 | 1.47
x1 = 0.9044 | 1008.44 | 994.51 | 985.23 | 975.95 | 966.66 | 3.41 | 2.44 | 2.01 | 1.69 | 1.45
x1 = 0.9505 | 1007.83 | 993.92 | 984.67 | 975.4 | 966.13 | 3.37 | 2.42 | 2.002 | 1.69 | 1.41
x1 = 1 | 1006.65 | 993.28 | 984.05 | 974.8 | 965.55 | 3.38 | 2.42 | 2.004 | 1.69 | 1.42
